Reference: patent US7541366B2, “Pyrrolo[3,2-c]pyridine derivatives and processes for the preparation thereof” (YUHAN Corporation, priority 2004, dated 2009)
Counter-ions that a name gives are not always drawn.

Experiments:
[1] = molecular target: T1, proton pump (H+/K+-ATPase) (Sus scrofa, UniProt P19156); assay: Inhibitory effects on proton pump (H+/K+-ATPase) activity; type: biochemical; details: hog gastric vesicles, K+ stimulated H+/K+-ATPase activity, Pi at 620 nm, 30 minutes at 37° C.
T1 construct: used as an enzyme source of the in vitro enzyme reaction assay of proton pump; from tissue; host or cells: hog gastric fundic mucosa; membrane vesicles, lyophilized
T1 sequence (P19156 whole entry): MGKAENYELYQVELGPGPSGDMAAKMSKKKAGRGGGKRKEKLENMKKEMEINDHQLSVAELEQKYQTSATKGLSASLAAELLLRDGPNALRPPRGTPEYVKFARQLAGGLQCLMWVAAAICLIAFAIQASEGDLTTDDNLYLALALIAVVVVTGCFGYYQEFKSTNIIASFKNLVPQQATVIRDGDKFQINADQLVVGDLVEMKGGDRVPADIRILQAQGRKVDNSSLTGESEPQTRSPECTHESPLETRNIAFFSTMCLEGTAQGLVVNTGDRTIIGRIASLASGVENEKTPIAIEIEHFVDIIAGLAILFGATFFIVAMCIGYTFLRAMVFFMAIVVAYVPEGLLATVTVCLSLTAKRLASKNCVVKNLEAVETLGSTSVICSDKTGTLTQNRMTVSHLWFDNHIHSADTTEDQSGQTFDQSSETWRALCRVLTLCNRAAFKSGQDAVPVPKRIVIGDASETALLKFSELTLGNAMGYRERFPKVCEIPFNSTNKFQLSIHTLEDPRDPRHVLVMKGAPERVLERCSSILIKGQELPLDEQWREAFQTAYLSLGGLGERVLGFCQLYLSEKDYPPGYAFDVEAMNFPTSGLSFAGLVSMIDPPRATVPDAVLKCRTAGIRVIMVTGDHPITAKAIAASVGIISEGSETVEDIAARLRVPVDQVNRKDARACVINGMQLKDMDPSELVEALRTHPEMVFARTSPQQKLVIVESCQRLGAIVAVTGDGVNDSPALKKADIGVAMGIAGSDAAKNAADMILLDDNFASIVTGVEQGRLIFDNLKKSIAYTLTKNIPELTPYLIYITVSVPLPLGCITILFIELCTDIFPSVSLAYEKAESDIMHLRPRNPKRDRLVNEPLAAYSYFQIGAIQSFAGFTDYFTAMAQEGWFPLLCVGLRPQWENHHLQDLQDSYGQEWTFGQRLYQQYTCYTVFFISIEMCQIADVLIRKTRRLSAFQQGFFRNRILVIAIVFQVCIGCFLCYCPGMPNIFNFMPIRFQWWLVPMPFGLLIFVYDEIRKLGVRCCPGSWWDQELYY
T1 sequence (P18434 whole entry partner): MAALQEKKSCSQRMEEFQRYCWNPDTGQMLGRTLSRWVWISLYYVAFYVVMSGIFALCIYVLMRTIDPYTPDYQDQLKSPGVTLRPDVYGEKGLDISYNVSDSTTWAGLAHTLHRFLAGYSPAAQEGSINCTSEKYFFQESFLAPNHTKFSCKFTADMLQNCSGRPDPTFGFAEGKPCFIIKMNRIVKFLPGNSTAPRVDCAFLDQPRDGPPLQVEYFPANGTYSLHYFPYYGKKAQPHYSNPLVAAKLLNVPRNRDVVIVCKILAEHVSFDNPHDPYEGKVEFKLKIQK
Experimental: 1-1. Preparation of gastric proton pump vesicles
The hog fundic regions containing parietal and peptic cells were scraped with slide-glass. The collected cells were suspended in 10 ml of 0.25M sucrose buffer and homogenized using a tight-fitting Teflon-glass homogenizer. The homogenate was centrifuged for 35 min at 8,000 rpm and the pellet was discarded. The supernatant was further centrifuged for 75 min at 25,000 rpm. The resulting pellets were re-suspended in the sucrose buffer (10 ml), and then the suspension was laid onto discontinuous density gradients consisting of 0.25M sucrose buffer and isolation medium containing 9% Ficoll (w/w). After being centrifuged for 3 hours and 15 minutes at 100,000×g, the material at the interface of sucrose buffer and Ficoll solution was collected and then centrifuged for 40 minutes at 100,000×g. The resulting pellets were re-suspended in 1 ml of 5 mM Hepes/Tris buffer (pH 6.1). This material was lyophilized and stored at −70° C. and used as an enzyme source of the in vitro enzyme reaction assay of proton pump.
1-2. Measurement of inhibitory effects on proton pump (H^+/K^+-ATPase) activity
The inhibitory effects of the compounds of the present invention against proton pump activity were evaluated in 96-well plate. In this assay, the K^+specific H^+/K^+-ATPase activity was calculated based on the difference between the activity of H^+/K^30 -ATPase activity with K^30 and without K^30 ion. In 96-well plate, 1% dimethylsulfoxide (DMSO) in buffer was added to negative and positive control groups and the diluted compounds of the present invention in buffer were added to test group. All assays were performed in 100μl reaction volume at room temperature, and the hog gastric vesicle was kept in ice before use. At the beginning of the reaction, 10μl of reaction buffer containing 1% DMSO was added to the negative and positive control groups and to reaction buffer each concentration of compounds in the test group. Then lyophilized vesicle in 5mM Pipes/Tris buffer (pH 6.1) was pre-incubated in the presence of various concentrations of test compounds. After a 5 minute incubation, negative and positive buffers were respectively added to the previous reaction mixture. As the substrate, ATP was added to the reaction buffer, and incubated for 30 minutes at 37° C. Enzymatic activity was stopped by the addition of colorimetric reagent (2X malachite green, 1X ammonium molybdate, X polyvinyl alcohol, 2X H2O) and the amount of mono phosphate (Pi) in the reaction was measured at 620nm using the micro plate reader (Genios Pro, TECAN). The difference between the Pi production with K^+and without K^+is taken as K^+stimulated H^+/K^+-ATPase activity. The IC50s of test compounds were calculated from each % inhibition value of compounds using the method of Litchfield-Wilcoxon (J. Pharmacol. Exp. Ther. (1949) 96, 99).

[2] = test system: basal gastric acid secretion; assay: Inhibitory effects on basal gastric acid secretion in pylorus-ligated rats (Shay's rat model); type: in vivo, Sprague Dawley (SD) rats; details: oral, one hour before pylorus ligation, total acid output 5 hours after ligation, male SD rats
Experimental: Test Example 2. Inhibitory effects on basal gastric acid secretion in pylorus-ligated rats. Inhibitory effects of the compounds of the present invention on basal gastric acid secretion were performed according to Shay's rat model (Shay, H., et al., 1945, gastroenterology, 5, 43-61). Male Sprague Dawley (SD) rats (200±10 g body weight) were divided into 3 groups (n=5) and fasted for 24 hours with free access to water. Control group was orally administered with 0.5% methylcellulose alone and the other groups were orally administered with test compounds suspended in 0.5% methyl-cellulose solution at doses of 1, 3 and 10 mg/kg/5 ml one hour before pylorus ligation. Under ether anesthesia, the abdomens of the rats were incised and then the pylorus was ligated. 5 hours after ligation, the animals were sacrificed, and the gastric contents were collected. The collected contents were centrifuged at 1,000×g for 10 minutes to obtain the gastric juice. Total acid output was measured by 0.01N NaOH volume (ueq/ml) for automatic titration of the gastric juice to pH 7.0 and the ED50s of test compounds were calculated using the Litchfield-Wilcoxon method. % inhibitory activity was calculated from the following equation and the results are shown in Table 2. %inhibitory activity of test compound=(total acid output of control group−total acid output of the group treated with test compounds)/total acid output of control group X 100

Compound | IC50 [1] [nM] | ED50 [2] [mg/kg]
Cc1[nH]c2c(OCc3ccc(F)cc3)cncc2c1C [Example 1, 7-(4-fluorobenzyloxy)-2,3-dimethyl-1H-pyrrolo[3,2-c]pyridine hydrochloride] | 120 | 
C#CCn1c(C)c(C)c2cncc(OCc3ccc(F)cc3)c21.Cl [Example 2, 7-(4-fluorobenzyloxy)-2,3-dimethyl-1-(prop-2-ynyl)-1H-pyrrolo[3,2-c]pyridine hydrochloride] | 10 | 1.1
CCn1c(C)c(C)c2cncc(OCc3ccc(F)cc3)c21 [Example 3, 1-ethyl-7-(4-fluorobenzyloxy)-2,3-dimethyl-1H-pyrrolo[3,2-c]pyridine hydrochloride] | 40 | 
C=CCn1c(C)c(C)c2cncc(OCc3ccc(F)cc3)c21 [Example 5, 1-allyl-7-(4-fluorobenzyloxy)-2,3-dimethyl-1H-pyrrolo[3,2-c]pyridine hydrochloride] | 280 | 
Cc1c(C)n(Cc2cccc(F)c2)c2c(OCc3ccc(F)cc3)cncc12 [Example 6, 1-(3-fluorobenzyl)-7-(4-fluorobenzyloxy)-2,3-dimethyl-1H -pyrrolo[3,2-c]pyridine hydrochloride] | 30 | 
COc1cccc(Cn2c(C)c(C)c3cncc(OCc4ccc(F)cc4)c32)c1 [Example 7, 7-(4-fluorobenzyloxy)-1-(3-methoxybenzyl)-2,3-dimethyl-1H -pyrrolo[3,2-c]pyridine hydrochloride] | 60 | 
Cc1ccc(Cn2c(C)c(C)c3cncc(OCc4ccc(F)cc4)c32)cc1 [Example 8, 7-(4-fluorobenzyloxy)-2,3-dimethyl-1-(4-methylbenzyl)-1H -pyrrolo[3,2-c]pyridine hydrochloride] | 60 | 
Cc1c(C)n(Cc2ccc(F)cc2)c2c(OCc3ccc(F)cc3)cncc12 [Example 9, 1-(4-fluorobenzyl)-7-(4-fluorobenzyloxy)-2,3-dimethyl-1H -pyrrolo[3,2-c]pyridine hydrochloride] | 50 | 
Cc1c(C)n(Cc2ccc(C(F)(F)F)cc2)c2c(OCc3ccc(F)cc3)cncc12 [Example 10, 7-(4-fluorobenzyloxy)-2,3-dimethyl-1-(4-trifluoromethylbenzyl)-1H -pyrrolo[3,2-c]pyridine hydrochloride] | 340 | 
Cc1c(C)n(CC(C)C)c2c(OCc3ccc(F)cc3)cncc12 [Example 11, 7-(4-fluorobenzyloxy)-1-isobutyl-2,3-dimethyl-1H-pyrrolo[3,2-c]pyridine hydrochloride] | 10 | 
Cc1ccc(C)c(Cn2c(C)c(C)c3cncc(OCc4ccc(F)cc4)c32)c1 [Example 13, 1-(2,5-dimethylbenzyl)-7-(4-fluorobenzyloxy)-2,3-dimethyl-1H -pyrrolo[3,2-c]pyridine hydrochloride] | 1020 | 
Cc1c(C)n(Cc2ccccc2Cl)c2c(OCc3ccc(F)cc3)cncc12 [Example 14, 1-(2-chlorobenzyl)-7-(4-fluorobenzyloxy)-2,3-dimethyl-1H -pyrrolo[3,2-c]pyridine hydrochloride] | 460 | 
Cc1c(C)n(Cc2ccccc2F)c2c(OCc3ccc(F)cc3)cncc12 [Example 15, 1-(2-fluorobenzyl)-7-(4-fluorobenzyloxy)-2,3-dimethyl-1H -pyrrolo[3,2-c]pyridine hydrochloride] | 190 | 

More lines, main results first:

IC50 [1] [nM] | Compound | ED50 [2] [mg/kg]
10 | Cc1c(C)n(CC2CC2)c2c(OCc3ccc(F)cc3)cncc12 [Example 4, 1-cyclopropylmethyl-7-(4-fluorobenzyloxy)-2,3-dimethyl-1H -pyrrolo[3,2-c]pyridine hydrochloride] | 
460 | Cc1[nH]c2c(N3CCc4ccccc4C3)cncc2c1C [Example 27, 2-(2,3-dimethyl-1H-pyrrolo[3,2-c]pyridin-7-yl)-1,2,3,4-tetrahydroisoquinoline hydrochloride] | 
190 | Cc1c(C)n(Cc2ccc(F)cc2)c2c(N3CCc4ccccc4C3)cncc12 [Example 28, 2-[1-(4-fluorobenzyl)-2,3-dimethyl-1H-pyrrolo[3,2-c]pyridin-7-yl]-1,2,3,4-tetrahydroisoquinoline hydrochloride] | 
320 | COC(=O)c1ccc(Cn2c(C)c(C)c3cncc(N4CCc5ccccc5C4)c32)cc1 [Example 29, 1-(4-methoxycarbonylbenzyl)-7-(1,2,3,4-tetrahydroisoquinolin-2-yl)-2,3-dimethyl-1H-pyrrolo[3,2-c]pyridine hydrochloride] | 
170 | Cc1c(C)n(Cc2ccc3c(c2)OCCO3)c2c(N3CCc4ccccc4C3)cncc12 [Example 30, 2-[1-(2,3-dihydrobenzo[1,4]dioxin-6-ylmethyl)-2,3-dimethyl-1H-pyrrolo[3,2-c]pyridin-7-yl]-1,2,3,4-tetrahydroisoquinoline hydrochloride] | 
170 | COCCn1c(C)c(C)c2cncc(N3CCc4ccccc4C3)c21 [Example 31, 1-(2-methoxyethyl)-7-(1,2,3,4-tetrahydroisoquinolin-2-yl)-2,3-dimethyl-1H -pyrrolo[3,2-c]pyridine hydrochloride] | 
290 | Cc1c(C)n(Cc2ccc3ccccc3c2)c2c(N3CCc4ccccc4C3)cncc12 [Example 32, 1-(2-naphthylmethyl)-7-(1,2,3,4-tetrahydroisoquinolin-2-yl)-2,3-dimethyl-1H -pyrrolo[3,2-c]pyridine hydrochloride] | 
410 | C=COCCn1c(C)c(C)c2cncc(N3CCc4ccccc4C3)c21 [Example 33, 1-(2-vinyloxyethyl)-7-(1,2,3,4-tetrahydroisoquinolin-2-yl)-2,3-dimethyl-1H -pyrrolo[3,2-c]pyridine hydrochloride] | 
190 | Cc1c(C)n(CC2OCCO2)c2c(N3CCc4ccccc4C3)cncc12 [Example 34, 1-(1,3-dioxolan-2-ylmethyl)-7-(1,2,3,4-tetrahydroisoquinolin-2-yl)-2,3-dimethyl-1H -pyrrolo[3,2-c]pyridine hydrochloride] | 
60 | Cc1c(C)n(Cc2ccccc2)c2c(N3CCc4ccccc4C3)cncc12 [Example 35, 1-benzyl-7-(1,2,3,4-tetrahydroisoquinolin-2-yl)-2,3-dimethyl-1H -pyrrolo[3,2-c]pyridine hydrochloride] | 
310 | Cc1c(C)n(CC(C)C)c2c(N3CCc4ccccc4C3)cncc12 [Example 36, 1-isobutyl-7-(1,2,3,4-tetrahydroisoquinolin-2-yl)-2,3-dimethyl-1H -pyrrolo[3,2-c]pyridine hydrochloride] | 
750 | Cc1c(C)n(CC2CCC2)c2c(N3CCc4ccccc4C3)cncc12 [Example 37, 1-cyclobutylmethyl-7-(1,2,3,4-tetrahydroisoquinolin-2-yl)-2,3-dimethyl-1H -pyrrolo[3,2-c]pyridine hydrochloride] | 
240 | Cc1c(C)n(CC2CC2)c2c(N3CCc4ccccc4C3)cncc12 [Example 39, 2-(1-cyclopropylmethyl-2,3-dimethyl-1H-pyrrolo[3,2-c]pyridin-7-yl)-1,2,3,4-tetrahydroisoquinoline hydrochloride] | 
30 | CCn1c(C)c(C)c2cncc(N3CCc4ccccc4C3)c21 [Example 40, 2-(1-ethyl-2,3-dimethyl-1H-pyrrolo[3,2-c]pyridin-7-yl)-1,2,3,4-tetrahydroisoquinoline hydrochloride] | 
1810 | Cc1c(C)n(Cc2cccc(C#N)c2)c2c(N3CCc4ccccc4C3)cncc12 [Example 41, 3-[7-(3,4-dihydro-1H-isoquinolin-2-yl)-2,3-dimethylpyrrolo[3,2-c]pyridin-1-ylmethyl]-benzonitrile hydrochloride] | 
